According to US20250325684A1, “POTENT ANTI-CANCER CYCLOTIDES” (University of Southern California, priority 2022, published 2025):
Read-outs that look alike come from different tables or passages of the source. Numbered stars: 1 amine (or outer) side, 2 acyl side, 3 side chain; on linkers, the order of the positions; unused ones are H or OH. Bridge positions count the residues as written; N and C are the ends. Square brackets hold non-standard residues; d marks the D form. Peptide text beside a SMILES is read from it. I, II: the chains in the order shown. X1 = O=C(CCc1cn(CCOCCOCCOCCC(=O)[*:2])nn1)[*:1]; isoGln = NC(=O)[C@H](CCC(=O)[*:2])N[*:1]

How the values were obtained:
SW620 = test: MTT cell viability, SW620 cells; assay type: cell-based, human; settings: SW620 colon adenocarcinoma, p53 Mutant
Experimental: (§1) Cell viability assay in several human cancer cell lines (See Tables 1 to 10). Cell lines were cultured in RPMI 1640 (or recommended medium when indicated) medium supplemented with 10% fetal calf serum, penicillin (50 IU/mL) and streptomycin ([…]) at 37° C. in 5% CO2. Cell viability studies was carried using the MTT (3-(4,5-dimethylthiazol-2-yl)-2,5-diphenyltetrazolium bromide) assay as previously described (31). Briefly, ≈2×10^3 CRC cells were be seeded in 96-well microtiter plates in 100 μL RPMI 1640 in the presence of 10% calf serum. […] After 1 h, 210 μL/well of full complemented media was added, the cells were grown for 48 h and then treated with 20 μL of a solution of MTT (5 mg/mL) for 2 h. The medium was discarded and DMSO ([…]) was added to each well and incubated with gentle shaking for 20 min at room temperature. The absorbance at 595 nm of the solution is analyzed using a Tecan Genios Multifunctional Microplate Reader (Tecan System Inc) and the background at 670 nm subtracted. RNA-Seq analysis was performed using state-of-the-art bioinformatics tools. Briefly, raw RNA-Seq reads were mapped to human genome (hg38) using STAR aligner (v2.7.3a). Gencode Release 36 reference was used for annotation. Transcript and gene expression levels were quantified using the IsoEM (37) with default parameters. Counts per million (CPM) method is used for normalization. Differential expression was done using DESeq2 with default parameters. Genes involved in different biological pathways (human) were searched from Geneontology (http://geneontology.org/). Bioinformatics results can be validated by using Partek Flow (v10.0.21.0912), a bioinformatics pipeline developed by Zymo Research (https://www.zymoresearch.com/).
(§2) Cell viability was evaluated using the MTT assay as described above.

BxPC-3 = test: MTT cell viability, BxPC-3 cells; assay type: cell-based, human; settings: BxPC-3 pancreatic ductal adenocarcinoma, p53 Mutant
Experimental: as §1, §2

SW1990 = test: MTT cell viability, SW1990 cells; assay type: cell-based, human; settings: SW1990 pancreatic adenocarcinoma, p53 Mutant (Deletion)
Experimental: as §1, §2

Caco-2 = test: MTT cell viability, Caco-2 cells; assay type: cell-based, human; settings: Caco-2 colon adenocarcinoma, p53 Mutant
Experimental: as §1, §2

ES-2 = test: MTT cell viability, ES-2 ovarian cells; assay type: cell-based, human; settings: p53 Mutant
Experimental: (§3) Cell viability assay in several human cancer cell lines (See Tables 1 to 10). Cell lines were cultured in RPMI 1640 (or recommended medium when indicated) medium supplemented with 10% fetal calf serum, penicillin (50 IU/mL) and streptomycin ([…]) at 37° C. in 5% CO2. Cell viability studies was carried using the MTT (3-(4,5-dimethylthiazol-2-yl)-2,5-diphenyltetrazolium bromide) assay as previously described (31). Briefly, ≈2×10^3 CRC cells were be seeded in 96-well microtiter plates in 100 μL RPMI 1640 in the presence of 10% calf serum. After 24 h incubation the cells were washed with PBS and treated with 30 μL/well of PBS or RPMI 1640 (or recommended) media containing cyclotides MCo-52, MCoTI-I (used as negative control), nutlin-3a (used as positive control) or MI-77301 (used as positive control for p53-mutated or p53-null cells) at the indicated doses for 1 h at 37° C. in 5% CO2. After 1 h, 210 μL/well of full complemented media was added, the cells were grown for 48 h and then treated with 20 μL of a solution of MTT (5 mg/mL) for 2 h. The medium was discarded and DMSO ([…]) was added to each well and incubated with gentle shaking for 20 min at room temperature. The absorbance at 595 nm of the solution is analyzed using a Tecan Genios Multifunctional Microplate Reader (Tecan System Inc) and the background at 670 nm subtracted. RNA-Seq analysis was performed using state-of-the-art bioinformatics tools. Briefly, raw RNA-Seq reads were mapped to human genome (hg38) using STAR aligner (v2.7.3a). Gencode Release 36 reference was used for annotation. Transcript and gene expression levels were quantified using the IsoEM (37) with default parameters. Counts per million (CPM) method is used for normalization. Differential expression was done using DESeq2 with default parameters. Genes involved in different biological pathways (human) were searched from Geneontology (http://geneontology.org/). Bioinformatics results can be validated by using Partek Flow (v10.0.21.0912), a bioinformatics pipeline developed by Zymo Research (https://www.zymoresearch.com/).
(§4) Tables 1 through 10 show in vitro activity of cyclotide MCo-52-2-cTAT against different human cancer cell lines, some with null-, mutated, or wildtype p53 phenotypes. Cell viability was evaluated using the MTT assay as described above.

DU145 = test: MTT cell viability, DU145 cells; assay type: cell-based; settings: DU145 prostate carcinoma, p53 Mutant, read-out: Cell viability, Human Prostate Cancer Cells
Experimental: as §3, §4

CFPAC-1 = test: MTT cell viability, CFPAC-1 cells; assay type: cell-based, human; settings: CFPAC-1 pancreatic ductal adenocarcinoma, p53 Mutant
Experimental: as §1, §2

PC-3 = test: MTT cell viability, PC-3 cells; assay type: cell-based; settings: PC-3 prostate carcinoma, p53 Mutant, read-out: Cell viability, Human Prostate Cancer Cells
Experimental: as §3, §4

AsPC-1 = test: MTT cell viability, AsPC-1 cells; assay type: cell-based, human; settings: AsPC-1 pancreatic ductal adenocarcinoma, p53 Mutant
Experimental: as §1, §2

SKOV 3 = test: MTT cell viability, SKOV 3 ovarian cells; assay type: cell-based, human; settings: p53 Mutant
Experimental: as §3, §4

LoVo = test: MTT cell viability, LoVo cells; assay type: cell-based, human; settings: LoVo colon adenocarcinoma, p53 WT
Experimental: as §1, §2

SW480 = test: MTT cell viability, SW480 cells; assay type: cell-based, human; settings: SW480 colon adenocarcinoma, p53 Mutant
Experimental: as §1, §2

SW626 = test: MTT cell viability, SW626 cells; assay type: cell-based, human; settings: p53 Mutant
Experimental: as §1, §2

HT29 = test: MTT cell viability, HT29 cells; assay type: cell-based, human; settings: HT29 colon adenocarcinoma, p53 Mutant
Experimental: as §1, §2

Capan-1 = test: MTT cell viability, Capan-1 cells; assay type: cell-based, human; settings: Capan-1 pancreatic ductal adenocarcinoma, p53 Mutant
Experimental: as §1, §2

NIHOVCAR3 = test: MTT cell viability, NIHOVCAR3 ovarian cells; assay type: cell-based, human; settings: p53 Mutant
Experimental: as §3, §4

HPAF-II = test: MTT cell viability, HPAF-II cells; assay type: cell-based, human; settings: HPAF-II pancreatic ductal adenocarcinoma, p53 Mutant
Experimental: as §1, §2

[1] = SW626 colon adenocarcinoma metastatic site: Ovary, MTT (Table 1), read-out: EC50
[2] = SW626 ovarian cells, MTT (Table 7), read-out: Cell Viability Assay

| Compound | EC50 (SW620) | EC50 (BxPC-3) | EC50 (SW1990) | EC50 (Caco-2) | EC50 (ES-2) | EC50 (DU145) | EC50 (CFPAC-1) | EC50 (PC-3) | EC50 (AsPC-1) | EC50 (SKOV 3) | EC50 (LoVo) | EC50 (SW480) | EC50 (SW626; [1]) | EC50 (SW626; [2]) | EC50 (HT29) | EC50 (Capan-1) | EC50 (NIHOVCAR3) | EC50 (HPAF-II) |
| --- | --- | --- | --- | --- | --- | --- | --- | --- | --- | --- | --- | --- | --- | --- | --- | --- | --- | --- |
| COc1ccc(C2=N[C@@H](c3ccc(Cl)cc3)[C@@H](c3ccc(Cl)cc3)N2C(=O)N2CCNC(=O)C2)c(OC(C)C)c1 [Nutlin 3A] | > 100 µM | 38.5 ± 5.1 µM | > 100 µM | > 50 µM | 92.3 ± 1.2 µM | > 100 µM | > 50 µM | > 100 µM | > 100 µM | > 100 µM | 1.5 ± 0.1 µM | 58.7 ± 7.5 µM | > 100 µM | 50.3 ± 0.2 µM | > 100 µM | > 100 µM | 57.7 ± 0.1 µM | > 50 µM |
| N=C(N)NCCC[C@@H]1NC(=O)[C@@H](CCCNC(=N)N)NC(=O)[C@H](CCCCN)NC(=O)[C@@H](N)CCCCNC(=O)CC[C@@H](C(=O)O)NC(=O)[C@@H](CCCNC(=N)N)NC(=O)[C@H](CCCNC(=N)N)NC(=O)[C@@H](CCCCN)NC(=O)[C@H](CCCCN)NC(=O)[C@@H](CCCNC(=N)N)NC(=O)CNC(=O)[C@@H](CCCNC(=N)N)NC1=O [cTAT] (H-KK[dR]R[dR]G[dR]K[dK]R[dR]E-OH; lactam 1-12; N-terminus and C-terminus assumed) | > 100 µM | > 100 µM | > 100 µM | > 100 µM | > 100 µM | > 100 µM | > 100 µM | > 100 µM | > 100 µM | > 100 µM | > 100 µM | > 100 µM | > 100 µM | > 100 µM | > 100 µM | > 100 µM | > 100 µM | > 100 µM |
| I: cyclo(ACICRHDSYCGSGSDGGVCPNLYLLCRRDKDCPG) / II: KK[dR]R[dR]G[dR]K[dK]R[dR][isoGln] (disulfide I:2-I:19, I:4-I:26, I:10-I:32; linker I:30-II:N via X1; lactam II:1-II:C) [Cyclotide 52-2-cTAT] | 15.3 ± 2 µM | 10.6 ± 1 µM | 11.9 ± 1.3 µM | 11.7 ± 0.8 µM | 6.38 ± 0.1 µM | 37 ± 1.2 µM | 13.4 ± 1.8 µM | 23.2 ± 0.6 µM | 11.5 ± 1.5 µM | 19.1 ± 0.1 µM | 10.7 ± 0.9 µM | 10.9 ± 1.3 µM |  | 27.5 ± 0.7 µM | 9.9 ± 0.9 µM | 3.3 ± 0.3 µM | 7.8 ± 0.1 µM | 14.6 ± 1.8 µM |
